Experimental data reported in ChEMBL document CHEMBL1201862, “PubChem BioAssay data set” (2004).
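Five compound concentrations were applied to cells in 96-well plates for 48 hours; endpoints were derived by simple linear interpolation of the resulting dose-response curve. GI50: concentration for 50% inhibition of growth.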 Activity calls are given as the source filed them. Cut-off read from the data, not from the text of the source: active = GI50 up to about 1.1 µM and inactive = higher.

Assays:
Assay in all cases: NCI anticancer screen, dose series, 48 h
[1] = test system: HT-29
[2] = test system: PC-3
[3] = test system: 786-0
[4] = test system: SF-268
[5] = test system: HCC 2998
[6] = test system: Malme-3M
[7] = test system: SF-539
[8] = test system: MDA-N
[9] = test system: OVCAR-5
[10] = test system: RPMI-8226
[11] = test system: CAKI-1
[12] = test system: EKVX
[13] = test system: HOP-92
[14] = test system: OVCAR-8
[15] = test system: CCRF-CEM
[16] = test system: SW-620
[17] = test system: SF-295
[18] = test system: SK-MEL-2
[19] = test system: U-251
[20] = test system: K562
[21] = test system: NCI-H226
[22] = test system: NCI-H23
[23] = test system: UACC-257
[24] = test system: HCT-116
[25] = test system: SNB-75
[26] = test system: HCT-15
[27] = test system: SK-MEL-28
[28] = test system: MDA-MB-231
[29] = test system: NCI-H522
[30] = test system: A498
[31] = test system: COLO 205
[32] = test system: BT-549
[33] = test system: TK-10
[34] = test system: MCF7
[35] = test system: NCI-H460
[36] = test system: IGROV-1
[37] = test system: RXF 393
[38] = test system: SNB-19
[39] = test system: OVCAR-4
[40] = test system: NCI/ADR-RES
[41] = test system: DU-145
[42] = test system: ACHN
[43] = test system: M14
[44] = test system: KM12
[45] = test system: T47D
[46] = test system: Hs-578T
[47] = test system: LOX IMVI
[48] = test system: SR
[49] = test system: SK-MEL-5
[50] = test system: HOP-62
[51] = test system: MOLT-4
[52] = test system: SK-OV-3
[53] = test system: MDA-MB-435
[54] = test system: SN12C
[55] = test system: UO-31
[56] = test system: OVCAR-3
[57] = test system: UACC-62
[58] = test system: A549
[59] = test system: HL-60

With `COC(=O)[C@@H]1[C@@H]2NC(=S)N[C@@]1(C)Oc1ccccc12` the GI50 [1] was 28.5 µM (inactive), the GI50 [2] was 63.5 µM (inactive) and the GI50 [3] was 75.7 µM (inactive). For the same compound, the GI50 [4] was 39 µM (inactive), the GI50 [5] was 41.6 µM (inactive) and the GI50 [6] was 52 µM (inactive). The GI50 [7] was 37.7 µM (inactive), the GI50 [8] was 18.4 µM (inactive) and the GI50 [9] was 60.4 µM (inactive). The GI50 [10] was 48.2 µM (inactive), the GI50 [11] was 76.9 µM (inactive) and the GI50 [12] was 52.5 µM (inactive). For the same compound, the GI50 [13] was 49.9 µM (inactive), the GI50 [14] was 51.5 µM (inactive) and the GI50 [15] was 61.9 µM (inactive). For the same compound, the GI50 [16] was 55.7 µM (inactive), the GI50 [17] was 38.5 µM (inactive) and the GI50 [18] was > 100 µM (inactive). The GI50 [19] was 38.3 µM (inactive), the GI50 [20] was 29.5 µM (inactive) and the GI50 [21] was 91.4 µM (inactive). The GI50 [22] was 42.6 µM (inactive), the GI50 [23] was > 100 µM (inactive) and the GI50 [24] was 67.6 µM (inactive). For the same compound, the GI50 [25] was 27.4 µM (inactive), the GI50 [26] was 32.1 µM and the GI50 [27] was > 100 µM (inactive). For the same compound, the GI50 [28] was 74.6 µM (inactive), the GI50 [29] was 31.6 µM (inactive) and the GI50 [30] was > 100 µM (inactive). The GI50 [31] was 37.5 µM (inactive), the GI50 [32] was 83.6 µM (inactive) and the GI50 [33] was > 100 µM (inactive). The GI50 [34] was 45.7 µM (inactive), the GI50 [35] was 44.2 µM (inactive) and the GI50 [36] was 49 µM (inactive). The GI50 [37] was > 100 µM (inactive), the GI50 [38] was 49 µM (inactive) and the GI50 [39] was > 100 µM (inactive). The GI50 [40] was 30.2 µM (inactive), the GI50 [41] was 36.3 µM (inactive) and the GI50 [42] was 87.9 µM (inactive). The GI50 [43] was 42.8 µM (inactive), the GI50 [44] was 29.7 µM (inactive) and the GI50 [45] was > 100 µM (inactive). The GI50 [46] was 51.9 µM (inactive), the GI50 [47] was 37.6 µM (inactive) and the GI50 [48] was 95.3 µM (inactive). The GI50 [49] was 42 µM (inactive), the GI50 [50] was 89.3 µM (inactive) and the GI50 [51] was 0.324 µM (active). For the same compound, the GI50 [52] was 47.8 µM (inactive), the GI50 [53] was 10.1 µM (inactive) and the GI50 [54] was 46.2 µM (inactive). For the same compound, the GI50 [55] was > 100 µM (inactive), the GI50 [56] was > 100 µM (inactive) and the GI50 [57] was 78.3 µM (inactive).
`COCCOCCOC1=CC(=O)c2c(O)ccc(O)c2C1=O` was tested, and the GI50 [1] was 0.518 µM (active), the GI50 [2] was 2.48 µM (inactive) and the GI50 [3] was 1.8 µM (inactive). For the same compound, the GI50 [4] was 2.59 µM (inactive), the GI50 [5] was 1.82 µM (inactive) and the GI50 [6] was 0.149 µM (active). The GI50 [7] was 2.07 µM (inactive), the GI50 [8] was 0.153 µM (active) and the GI50 [10] was 1.37 µM (inactive). For the same compound, the GI50 [11] was 0.729 µM (active), the GI50 [12] was 2.86 µM (inactive) and the GI50 [13] was 2.18 µM (inactive). For the same compound, the GI50 [15] was 1.41 µM (inactive), the GI50 [16] was 0.571 µM (active) and the GI50 [17] was 1.82 µM (inactive). For the same compound, the GI50 [18] was 1.84 µM (inactive), the GI50 [20] was 0.671 µM (active) and the GI50 [21] was 2.3 µM (inactive). For the same compound, the GI50 [22] was 1.69 µM (inactive), the GI50 [23] was 0.397 µM (active) and the GI50 [24] was 0.307 µM (active). The GI50 [25] was 1.82 µM (inactive), the GI50 [27] was 1.54 µM (inactive) and the GI50 [28] was 1.49 µM (inactive). The GI50 [58] was 1.75 µM (inactive), the GI50 [29] was 1.57 µM (inactive) and the GI50 [30] was 2.67 µM (inactive). The GI50 [31] was 0.296 µM (active), the GI50 [32] was 1.79 µM (inactive) and the GI50 [33] was 2.93 µM (inactive). The GI50 [34] was 0.555 µM (active), the GI50 [35] was 1.91 µM (inactive) and the GI50 [36] was 1.82 µM (inactive). For the same compound, the GI50 [37] was 2.07 µM (inactive), the GI50 [38] was 1.75 µM (inactive) and the GI50 [39] was 1.73 µM (inactive). The GI50 [40] was 1.96 µM (inactive), the GI50 [41] was 1.49 µM (inactive) and the GI50 [59] was 0.505 µM (active). For the same compound, the GI50 [42] was 1.61 µM (inactive), the GI50 [43] was 0.971 µM (active) and the GI50 [44] was 1.83 µM (inactive). The GI50 [45] was 1.82 µM (inactive), the GI50 [46] was 2.47 µM (inactive) and the GI50 [47] was 1.52 µM (inactive). The GI50 [48] was 1.19 µM (inactive), the GI50 [49] was 0.173 µM (active) and the GI50 [50] was 1.71 µM (inactive). The GI50 [51] was 2.04 µM (inactive), the GI50 [52] was > 10 µM (inactive) and the GI50 [53] was 0.0278 µM (active). The GI50 [54] was 1.96 µM (inactive), the GI50 [55] was 1.62 µM (inactive) and the GI50 [56] was 1.44 µM (inactive). The GI50 [57] was 1.45 µM (inactive).
With `O=C(Nc1ccccc1)c1cc(S(=O)(=O)Nc2n[nH]c(=O)n2-c2ccccc2)c(S)cc1Cl` the GI50 [1] was > 100 µM (inactive), the GI50 [2] was > 100 µM (inactive) and the GI50 [3] was > 100 µM (inactive). For the same compound, the GI50 [4] was > 100 µM (inactive), the GI50 [5] was > 100 µM (inactive) and the GI50 [6] was > 100 µM (inactive). The GI50 [7] was > 100 µM (inactive), the GI50 [8] was > 100 µM (inactive) and the GI50 [9] was > 100 µM (inactive). For the same compound, the GI50 [10] was > 100 µM (inactive), the GI50 [11] was > 100 µM (inactive) and the GI50 [12] was > 100 µM (inactive). The GI50 [13] was > 100 µM (inactive), the GI50 [14] was > 100 µM (inactive) and the GI50 [16] was > 100 µM (inactive). For the same compound, the GI50 [18] was > 100 µM (inactive), the GI50 [19] was > 100 µM (inactive) and the GI50 [20] was > 100 µM (inactive). The GI50 [21] was > 100 µM (inactive), the GI50 [23] was > 100 µM (inactive) and the GI50 [24] was > 100 µM (inactive). For the same compound, the GI50 [25] was > 100 µM (inactive), the GI50 [26] was greater than 100 µM and the GI50 [27] was > 100 µM (inactive). The GI50 [28] was > 100 µM (inactive), the GI50 [58] was > 100 µM (inactive) and the GI50 [29] was > 100 µM (inactive). The GI50 [30] was > 100 µM (inactive), the GI50 [31] was > 100 µM (inactive) and the GI50 [32] was > 100 µM (inactive). For the same compound, the GI50 [33] was > 100 µM (inactive), the GI50 [34] was > 100 µM (inactive) and the GI50 [35] was > 100 µM (inactive). The GI50 [36] was > 100 µM (inactive), the GI50 [37] was > 100 µM (inactive) and the GI50 [38] was > 100 µM (inactive). For the same compound, the GI50 [39] was > 100 µM (inactive), the GI50 [40] was > 100 µM (inactive) and the GI50 [41] was > 100 µM (inactive). The GI50 [59] was > 100 µM (inactive), the GI50 [43] was > 100 µM (inactive) and the GI50 [44] was > 100 µM (inactive). For the same compound, the GI50 [45] was > 100 µM (inactive), the GI50 [46] was > 100 µM (inactive) and the GI50 [47] was > 100 µM (inactive). The GI50 [48] was > 100 µM (inactive), the GI50 [49] was > 100 µM (inactive) and the GI50 [51] was > 100 µM (inactive). For the same compound, the GI50 [52] was > 100 µM (inactive), the GI50 [53] was > 100 µM (inactive) and the GI50 [54] was > 100 µM (inactive). For the same compound, the GI50 [55] was > 100 µM (inactive), the GI50 [56] was > 100 µM (inactive) and the GI50 [57] was > 100 µM (inactive).
